The source of these data is US10858357B2, “Water-soluble myosin 2 inhibitors for the treatment of neurological, neuropathic or psychiatric diseases” (PARIS SCIENCES ET LETTRES-QUARTIER LATIN, priority 2016, dated 2020).

Molecules are shown by their SMILES. Values after ≈ are worked out from the molar mass of the structure shown.

In series [1] the test system is EGFP-α-tubulin H2B-mCherry HeLa Kyoto cells. The series can be described thus: HeLa cell toxicity, 12-hour confocal time-lapse imaging. The class given is cell-based, human. The settings on record: time-lapse imaging, concentration not given. The procedure: For phototoxicity experiments, confocal time-lapse imaging of HeLa Kyoto H2B-mCherry eGFP-α-tubulin cells for 12 hours was performed in DMEM further supplemented with 25 mM HEPES in order to achieve CO2 independent media. Confocal time-lapse imaging was performed on a Zeiss LSM 710 using a Plan Apo 20×/0.8 objective, with the following parameters: 2% laser intensity at λexc=488 nm, 3% laser intensity at λexc=543 nm, 1.2× zoom, average 4, line step 1, 1000×1000 pixels, 0.35 μm pixel size, 0.65 μs dwell time, 3 slice/z-stack with 7 μm between slices at every 10 minutes.
To test the cytotoxicity of neurelaxin-A in live-cell fluorescence microscopy, time-lapse EGFP-α-tubulin H2B-mCherry labeled HeLa Kyoto cells were imaged in a confocal microscope (FIG. 4a).
Cells were treated with 50 μM neurelaxin-A and imaged for 12 hours applying 3 z-sections every 10 minutes.

For series [2] the following is noted: cited from earlier work; for solubility: Képiró et al., Angew. Chem. Int. Ed., 2014.
Series [3] concerns cannabinoid-induced working memory loss. In words: Novel object recognition (NOR) test with CP55,940. The settings on record: CP55,940 1 hour prior to familiarization, no neurelaxin-A. The class given is in vivo. The procedure: In this experiment, a novel object recognition (NOR) test was performed.
In this test animals are presented to two objects and it will explore them for a while. After, one of the objects is changed for a new and different one. Under normal circumstances animals will be attracted to the novel object and will spend more time exploring it, by comparison to the older and already known object. Animals with memory deficit will explore both objects equally.
The synthetic cannabinoid CB1R agonist CP55,940 is administrated 1 hour prior to the familiarization step. Thirty minutes prior to the familiarization animals are either treated or not with neurelaxin-A.

The subject of series [4] is myosin 2. To be noted: Lucas-Lopez et al., 2008; cited from earlier work.

For `Cc1ccc2c(c1)C(=O)C1(O)CCN(c3ccccc3)C1=N2` (stereo not drawn) [Blebbistatin], in series [1], the “cytotoxic phenotype in HeLa Kyoto cells (positive control)” value was “cells round up from the surface and eventually die”. For the same molecule, the solubility result in series [2] is on record as “around 20 μM”. The “water solubility: concentration above which slow precipitation is observed” value in series [2] (background statement) is 10 µM (≈ 2.92 µg/mL).

For the molecule `CCCCCCC(C)(C)c1ccc([C@@H]2C[C@H](O)CC[C@H]2CCCO)c(O)c1` [CP55,940, reference compound], in series [3], the “NOR test: exploration of familiar and novel object” value is given as “spend similar time exploring both objects”. For orientation: IC50 means the concentration that inhibits the measured activity by half. As for `O=C1c2ccc([N+](=O)[O-])cc2N=C2N(c3ccccc3)CCC12O` (stereo not drawn) [Nitroblebbistatin], in series [4], the IC50 is 27.5 µM.

Regarding `Cc1ccc2c(c1)C(=O)C1(O)CCN(c3ccc([N+](=O)[O-])cc3)C1=N2` (stereo not drawn) [Para-nitroblebbistatin], the solubility result in series [2] is on record as “around 20 μM”.
